In patent US11629171B2, “Beta-hairpin peptidomimetics” (POLYPHOR AG, priority 2017, dated 2023):
≈ marks a conversion by molar mass, not a printed value. Where a SMILES comes first, the peptide text is derived from it. Bridges are numbered along the chain shown (N, C = ends). Roman numbers before positions name the chains, in order. [ ]: non-standard residue; d: D form. Tle = CC(C)(C)[C@H](N)C(=O)O; dDab = NCC[C@@H](N)C(=O)O; Dab = NCC[C@H](N)C(=O)O; Dap = NC[C@H](N)C(=O)O

Legend:
Assay type in all cases: cell-based
[1] = system: Acinetobacter baumannii 872842; details: 872842
Summary of the method: (§1)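 MIC in μg/mL, read as no visible growth after 18-20 hours at 35° C. Peptides were serially diluted two-fold in MH-II broth plus P-80 (0.002% final, v/v) and inoculated at about 10^6 CFU/mL following the CLSI broth microdilution standard.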

[2] = system: Acinetobacter baumannii DSM 30008; details: DSM 30008
Summary of the method: as §1

[3] = system: Enterobacter cloacae 848840; details: 848840
Summary of the method: as §1

[4] = system: Escherichia coli 926415; details: 926415
Summary of the method: as §1

[5] = system: Escherichia coli ATCC 25922; details: ATCC 25922
Summary of the method: as §1

[6] = system: Klebsiella pneumoniae 968733; details: 968733
Summary of the method: as §1

[7] = system: Klebsiella pneumoniae SSI #3010; details: SSI #3010
Summary of the method: as §1

[8] = system: Pseudomonas aeruginosa ATCC 27853; details: ATCC 27853
Summary of the method: as §1

[9] = system: human red blood cells (hRBC); assay: Hemolysis; details: red cells of human, 1 h, 200
Summary of the method: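 Percent hemolysis relative to 2% Triton X-100 (100%) and PBS/10% water (0%), from blank-corrected OD540 of diluted supernatants. Peptides tested at 200 μg/mL against 20% (v/v) washed human erythrocytes, 1 h, 37° C, shaking at 300 rpm.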

SMILES | MIC [1] [µg/mL] | MIC [2] [µg/mL] | MIC [3] [µg/mL] | MIC [4] [µg/mL] | MIC [5] [µg/mL] | MIC [6] [µg/mL] | MIC [7] [µg/mL] | MIC [8] [µg/mL] | Hemolysis at 200 μg/mL [9] [%]
CC(=O)N[C@H](C(=O)N[C@H]1CSSC[C@@H](C(=O)N[C@@H](CO)C(N)=O)NC(=O)[C@H](C(C)C)NC(=O)[C@H](CCC(=O)O)NC(=O)[C@H](Cc2c[nH]c3ccccc23)NC(=O)[C@H](CO)NC(=O)[C@@H](CCN)NC(=O)[C@H](CCC(=O)N[C@@H](CCN)C(=O)N[C@H](C(=O)N[C@@H](CN)C(=O)N[C@H]2CCNC(=O)[C@H]([C@@H](C)O)NC(=O)[C@H](CCN)NC(=O)[C@H](CCN)NC(=O)[C@H](CC(C)C)NC(=O)[C@@H](CC(C)C)NC(=O)[C@H](CCN)NC2=O)[C@@H](C)O)NC(=O)[C@H](CCCCN)NC(=O)[C@H](Cc2ccc(O)cc2)NC1=O)C(C)C [Ex. 151] (I: Ac-VCYKE[dDab]SWEVCS-NH2 / II: [Dab]T[Dap][Dab][Dab][dL]L[Dab][Dab]T; disulfide I:2-I:11; amide I:5-II:N; lactam II:4-II:C) | 0.25 (≈ 0.101 µM) | 0.0625 (≈ 0.0253 µM) | 0.125 (≈ 0.0506 µM) | 0.5 (≈ 0.203 µM) | 0.03125 (≈ 0.0127 µM) | 1 (≈ 0.405 µM) | 0.0625 (≈ 0.0253 µM) | 0.125 (≈ 0.0506 µM) | <1
CC(=O)N[C@H](C(=O)N[C@H]1CSSC[C@@H](C(=O)N[C@@H](CO)C(N)=O)NC(=O)[C@H](C(C)C)NC(=O)[C@H](CC(=O)O)NC(=O)[C@H](Cc2c[nH]c3ccccc23)NC(=O)[C@H](CO)NC(=O)[C@@H](CCN)NC(=O)[C@H](CCC(=O)N[C@@H](CCN)C(=O)N[C@H](C(=O)N[C@@H](CN)C(=O)N[C@H]2CCNC(=O)[C@H]([C@@H](C)O)NC(=O)[C@H](CCN)NC(=O)[C@H](CCN)NC(=O)[C@H](CC(C)C)NC(=O)[C@@H](CC(C)C)NC(=O)[C@H](CCN)NC2=O)[C@@H](C)O)NC(=O)[C@H](CCCCN)NC(=O)[C@H](Cc2ccc(O)cc2)NC1=O)C(C)C [Ex. 152] (I: Ac-VCYKE[dDab]SWDVCS-NH2 / II: [Dab]T[Dap][Dab][Dab][dL]L[Dab][Dab]T; disulfide I:2-I:11; amide I:5-II:N; lactam II:4-II:C) | 1 (≈ 0.407 µM) | 0.125 (≈ 0.0509 µM) | 0.5 (≈ 0.204 µM) | 2 (≈ 0.815 µM) | 0.125 (≈ 0.0509 µM) | 8 (≈ 3.26 µM) | 0.25 (≈ 0.102 µM) | 0.25 (≈ 0.102 µM) | <1
CC(=O)N[C@H](C(=O)N[C@H]1CSSC[C@@H](C(=O)N[C@@H](CO)C(N)=O)NC(=O)[C@H](C(C)C)NC(=O)[C@H](CCC(=O)O)NC(=O)[C@H](Cc2c[nH]c3ccccc23)NC(=O)[C@H](CCN)NC(=O)[C@@H](CCN)NC(=O)[C@H](CCC(=O)N[C@@H](CCN)C(=O)N[C@H](C(=O)N[C@@H](CN)C(=O)N[C@H]2CCNC(=O)[C@H]([C@@H](C)O)NC(=O)[C@H](CCN)NC(=O)[C@H](CCN)NC(=O)[C@H](CC(C)C)NC(=O)[C@@H](CC(C)C)NC(=O)[C@H](CCN)NC2=O)[C@@H](C)O)NC(=O)[C@H](CCN)NC(=O)[C@H](Cc2ccc(O)cc2)NC1=O)C(C)C [Ex. 153] (I: Ac-VCY[Dab]E[dDab][Dab]WEVCS-NH2 / II: [Dab]T[Dap][Dab][Dab][dL]L[Dab][Dab]T; disulfide I:2-I:11; amide I:5-II:N; lactam II:4-II:C) | 0.0625 (≈ 0.0255 µM) | 0.03125 (≈ 0.0127 µM) | 0.125 (≈ 0.0509 µM) | 0.125 (≈ 0.0509 µM) | 0.0625 (≈ 0.0255 µM) | 0.25 (≈ 0.102 µM) | 0.0625 (≈ 0.0255 µM) | 0.125 (≈ 0.0509 µM) | <1
CC(=O)N[C@H](C(=O)N[C@H]1CSSC[C@@H](C(=O)N[C@@H](CO)C(N)=O)NC(=O)[C@H](C(C)(C)C)NC(=O)[C@H](CCC(=O)O)NC(=O)[C@H](Cc2c[nH]c3ccccc23)NC(=O)[C@H](CO)NC(=O)[C@@H](CCN)NC(=O)[C@H](CCC(=O)N[C@@H](CCN)C(=O)N[C@H](C(=O)N[C@@H](CN)C(=O)N[C@H]2CCNC(=O)[C@H]([C@@H](C)O)NC(=O)[C@H](CCN)NC(=O)[C@H](CCN)NC(=O)[C@H](CC(C)C)NC(=O)[C@@H](CC(C)C)NC(=O)[C@H](CCN)NC2=O)[C@@H](C)O)NC(=O)[C@H](CCN)NC(=O)[C@H](Cc2ccc(O)cc2)NC1=O)C(C)C [Ex. 154] (I: Ac-VCY[Dab]E[dDab]SWE[Tle]CS-NH2 / II: [Dab]T[Dap][Dab][Dab][dL]L[Dab][Dab]T; disulfide I:2-I:11; amide I:5-II:N; lactam II:4-II:C) | 0.0625 (≈ 0.0255 µM) | 0.01562 (≈ 0.00636 µM) | 0.125 (≈ 0.0509 µM) | 0.125 (≈ 0.0509 µM) | 0.03125 (≈ 0.0127 µM) | 0.25 (≈ 0.102 µM) | 0.0625 (≈ 0.0255 µM) | 0.125 (≈ 0.0509 µM) | <1
